Results reported in US20110251286A1, “Crystalline salts and/or co-crystals of O-desmethyltramadol” (GRUENENTHAL GmbH, priority 2010, published 2011).

What was measured:
[1] = Release in artificial intestinal juice; type: physicochemical; details: in artificial intestinal juice
Experimental: Investigations on release were carried out in a Sotax AT7 smart release apparatus with UV measurement (Perkin Elmer photometer).
A vessel with Wood apparatus was used (for intrinsic release).
A pressing of 0.5 cm^2 surface area (diameter 8 mm) was produced with a force of 200 N using approximately 100 mg of active ingredient.
Release was carried out in a release medium, which is composed as described below: • Intestinal juice without pancreas powder, pH 6.8 (analogous to Ph. Eur.); 250.0 ml 6.8 g of potassium dihydrogenphosphate R+0.896 g of NaOH+water to 1000.0 ml.
Release was carried out in a release volume of in each case 500±5 ml at a temperature of the release medium of 37±1° C. with a stirring speed of 100±5 rpm.
The content determination was carried out by means of spectroscopic methods (UV spectroscopy, wavelength: 271 nm, cuvette: 10 mm). Sample taking was carried out manually.
In this release experiment, the individual compounds were placed in a permeable bag in an amount in each case calculated on 100 mg of the free base.
The results, expressed in percent of the substance released, are reproduced in the following tables. In this case, the compounds denote: HCl: hydrochloride; A: cinnamate; B: palmitate; C: decanoate; E: hemi-fumarate and F: hemi-sebacate.

[2] = Dynamic vapor sorption (DVS): sorption and desorption of moisture; type: physicochemical
Experimental: Investigations on the sorption and desorption of moisture (dynamic vapor sorption, DVS): DVS measurements were carried out on an apparatus of the type DVS 1000 from Porotec. The evaluation of the measurements was carried out using software from Surface Measurement Systems. At a temperature between 23° C. and 26° C., starting from a relative humidity of 50%, within 240 minutes the relative humidity first increased to 90% and then fell to 0%. This cycle was repeated a second time. The DVS charts shown are isothermal recordings (plots) of the change in the mass in % (change in mass—dry) as a function of the desired relative humidity in % (target RH). Correspondingly, the axes of the graphs are marked by ΔM [%] and RH [%]. The measurement curves of the first sorption are designated by 1-S, the subsequent first desorption by 1-D, the second sorption by 2-S and the second desorption by 2-D. Advantageously, mass changes between the sorption and desorption phase are as low as possible.

O=C(O)/C=C/c1ccccc1 [cinnamate]
release rate compared to the hydrochloride salt [1]: decreased release rates compared to the hydrochloride salt
ΔM Desorption ([2]; 1st cycle, RH 0.0 %): 0.0012%
ΔM Desorption ([2]; 1st cycle, RH 10.0 %): 0.0432%
ΔM Desorption ([2]; 1st cycle, RH 20.0 %): 0.0766%
ΔM Desorption ([2]; 1st cycle, RH 30.0 %): 0.1106%
ΔM Desorption ([2]; 1st cycle, RH 40.0 %): 0.1370%
ΔM Desorption ([2]; 1st cycle, RH 50.0 %): 0.1624%
ΔM Hysteresis ([2]; 1st cycle, RH 50.0 %): −0.0006%
ΔM Sorption ([2]; 1st cycle, RH 50.0 %): 0.1629%
ΔM Desorption ([2]; 1st cycle, RH 60.0 %): 0.2010%
ΔM Hysteresis ([2]; 1st cycle, RH 60.0 %): −0.0299%
ΔM Sorption ([2]; 1st cycle, RH 60.0 %): 0.2309%
ΔM Desorption ([2]; 1st cycle, RH 70.0 %): 0.2562%
ΔM Hysteresis ([2]; 1st cycle, RH 70.0 %): −0.0081%
ΔM Sorption ([2]; 1st cycle, RH 70.0 %): 0.2643%
ΔM Desorption ([2]; 1st cycle, RH 80.0 %): 0.2988%
ΔM Hysteresis ([2]; 1st cycle, RH 80.0 %): 0.0150%
ΔM Sorption ([2]; 1st cycle, RH 80.0 %): 0.2839%
ΔM Desorption ([2]; 1st cycle, RH 90.0 %): 0.3057%
ΔM Sorption ([2]; 1st cycle, RH 90.0 %): 0.3057%
ΔM Desorption ([2]; 2nd cycle, RH 0.0 %): −0.0605%
ΔM Sorption ([2]; 2nd cycle, RH 0.0 %): 0.0012%
ΔM Desorption ([2]; 2nd cycle, RH 10.0 %): −0.0253%
ΔM Hysteresis ([2]; 2nd cycle, RH 10.0 %): −0.0610%
ΔM Sorption ([2]; 2nd cycle, RH 10.0 %): 0.0357%
ΔM Desorption ([2]; 2nd cycle, RH 20.0 %): 0.0046%
ΔM Hysteresis ([2]; 2nd cycle, RH 20.0 %): −0.0576%
ΔM Sorption ([2]; 2nd cycle, RH 20.0 %): 0.0622%
ΔM Desorption ([2]; 2nd cycle, RH 30.0 %): 0.0322%
ΔM Hysteresis ([2]; 2nd cycle, RH 30.0 %): −0.0576%
ΔM Sorption ([2]; 2nd cycle, RH 30.0 %): 0.0898%
ΔM Desorption ([2]; 2nd cycle, RH 40.0 %): 0.0605%
ΔM Hysteresis ([2]; 2nd cycle, RH 40.0 %): −0.0553%
ΔM Sorption ([2]; 2nd cycle, RH 40.0 %): 0.1157%
ΔM Desorption ([2]; 2nd cycle, RH 50.0 %): 0.0881%
ΔM Hysteresis ([2]; 2nd cycle, RH 50.0 %): −0.0530%
ΔM Sorption ([2]; 2nd cycle, RH 50.0 %): 0.1411%
ΔM Desorption ([2]; 2nd cycle, RH 60.0 %): 0.1169%
ΔM Hysteresis ([2]; 2nd cycle, RH 60.0 %): −0.0461%
ΔM Sorption ([2]; 2nd cycle, RH 60.0 %): 0.1629%
ΔM Desorption ([2]; 2nd cycle, RH 70.0 %): 0.1480%
ΔM Hysteresis ([2]; 2nd cycle, RH 70.0 %): −0.0248%
ΔM Sorption ([2]; 2nd cycle, RH 70.0 %): 0.1727%
ΔM Desorption ([2]; 2nd cycle, RH 80.0 %): 0.1658%
ΔM Hysteresis ([2]; 2nd cycle, RH 80.0 %): −0.0052%
ΔM Sorption ([2]; 2nd cycle, RH 80.0 %): 0.1710%
ΔM Desorption ([2]; 2nd cycle, RH 90.0 %): 0.1532%
ΔM Sorption ([2]; 2nd cycle, RH 90.0 %): 0.1532%
ΔM Sorption ([2]; 3rd cycle, RH 0.0 %): −0.0605%
ΔM Sorption ([2]; 3rd cycle, RH 10.0 %): −0.0190%
ΔM Sorption ([2]; 3rd cycle, RH 20.0 %): 0.0104%
ΔM Sorption ([2]; 3rd cycle, RH 30.0 %): 0.0345%
ΔM Sorption ([2]; 3rd cycle, RH 40.0 %): 0.0599%
ΔM Sorption ([2]; 3rd cycle, RH 50.0 %): 0.0829%

CN(C)CC1CCCCC1(O)c1cccc(O)c1.CN(C)CC1CCCCC1(O)c1cccc(O)c1.O=C(O)CCCCCCCCC(=O)O (stereo not drawn) [hemi-sebacate]
release rate compared to the hydrochloride salt [1]: decreased release rates compared to the hydrochloride salt
ΔM Desorption ([2]; DVS 1st cycle, RH 0.0%): 0.0000%
ΔM Desorption ([2]; DVS 1st cycle, RH 10.0%): 0.0235%
ΔM Desorption ([2]; DVS 1st cycle, RH 20.0%): 0.0308%
ΔM Desorption ([2]; DVS 1st cycle, RH 30.0%): 0.0323%
ΔM Desorption ([2]; DVS 1st cycle, RH 40.0%): 0.0338%
ΔM Desorption ([2]; DVS 1st cycle, RH 50.0%): 0.0323%
ΔM Hysteresis ([2]; DVS 1st cycle, RH 50.0%): −0.0382%
ΔM Sorption ([2]; DVS 1st cycle, RH 50.0%): 0.0704%
ΔM Desorption ([2]; DVS 1st cycle, RH 60.0%): 0.0293%
ΔM Hysteresis ([2]; DVS 1st cycle, RH 60.0%): −0.0396%
ΔM Sorption ([2]; DVS 1st cycle, RH 60.0%): 0.0690%
ΔM Desorption ([2]; DVS 1st cycle, RH 70.0%): 0.0220%
ΔM Hysteresis ([2]; DVS 1st cycle, RH 70.0%): −0.0132%
ΔM Sorption ([2]; DVS 1st cycle, RH 70.0%): 0.0352%
ΔM Desorption ([2]; DVS 1st cycle, RH 80.0%): 0.0088%
ΔM Hysteresis ([2]; DVS 1st cycle, RH 80.0%): 0.0205%
ΔM Sorption ([2]; DVS 1st cycle, RH 80.0%): −0.0117%
ΔM Desorption ([2]; DVS 1st cycle, RH 90.0%): −0.0499%
ΔM Sorption ([2]; DVS 1st cycle, RH 90.0%): −0.0499%
ΔM Desorption ([2]; DVS 2nd cycle, RH 0.0%): 0.1585%
ΔM Sorption ([2]; DVS 2nd cycle, RH 0.0%): 0.0000%
ΔM Desorption ([2]; DVS 2nd cycle, RH 10.0%): 0.1790%
ΔM Hysteresis ([2]; DVS 2nd cycle, RH 10.0%): 0.1438%
ΔM Sorption ([2]; DVS 2nd cycle, RH 10.0%): 0.0352%
ΔM Desorption ([2]; DVS 2nd cycle, RH 20.0%): 0.1834%
ΔM Hysteresis ([2]; DVS 2nd cycle, RH 20.0%): 0.1291%
ΔM Sorption ([2]; DVS 2nd cycle, RH 20.0%): 0.0543%
ΔM Desorption ([2]; DVS 2nd cycle, RH 30.0%): 0.1878%
ΔM Hysteresis ([2]; DVS 2nd cycle, RH 30.0%): 0.1174%
ΔM Sorption ([2]; DVS 2nd cycle, RH 30.0%): 0.0704%
ΔM Desorption ([2]; DVS 2nd cycle, RH 40.0%): 0.1922%
ΔM Hysteresis ([2]; DVS 2nd cycle, RH 40.0%): 0.1042%
ΔM Sorption ([2]; DVS 2nd cycle, RH 40.0%): 0.0880%
ΔM Desorption ([2]; DVS 2nd cycle, RH 50.0%): 0.1849%
ΔM Hysteresis ([2]; DVS 2nd cycle, RH 50.0%): 0.0880%
ΔM Sorption ([2]; DVS 2nd cycle, RH 50.0%): 0.0968%
ΔM Desorption ([2]; DVS 2nd cycle, RH 60.0%): 0.1761%
ΔM Hysteresis ([2]; DVS 2nd cycle, RH 60.0%): 0.0704%
ΔM Sorption ([2]; DVS 2nd cycle, RH 60.0%): 0.1057%
ΔM Desorption ([2]; DVS 2nd cycle, RH 70.0%): 0.1629%
ΔM Hysteresis ([2]; DVS 2nd cycle, RH 70.0%): 0.0719%
ΔM Sorption ([2]; DVS 2nd cycle, RH 70.0%): 0.0910%
ΔM Desorption ([2]; DVS 2nd cycle, RH 80.0%): 0.1350%
ΔM Hysteresis ([2]; DVS 2nd cycle, RH 80.0%): 0.0616%
ΔM Sorption ([2]; DVS 2nd cycle, RH 80.0%): 0.0734%
ΔM Desorption ([2]; DVS 2nd cycle, RH 90.0%): 0.0484%
ΔM Sorption ([2]; DVS 2nd cycle, RH 90.0%): 0.0484%
ΔM Sorption ([2]; DVS 3rd cycle (partial), RH 0.0%): 0.1585%
ΔM Sorption ([2]; DVS 3rd cycle (partial), RH 10.0%): 0.1937%
ΔM Sorption ([2]; DVS 3rd cycle (partial), RH 20.0%): 0.2113%
ΔM Sorption ([2]; DVS 3rd cycle (partial), RH 30.0%): 0.2245%
ΔM Sorption ([2]; DVS 3rd cycle (partial), RH 40.0%): 0.2377%
ΔM Sorption ([2]; DVS 3rd cycle (partial), RH 50.0%): 0.2465%
